Experimental data: PubChem BioAssay (NCI)
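The compound was tested at five concentrations on cells cultured in 96-well plates, with a 48-hour exposure period. GI50: concentration for 50% inhibition of growth. At the TGI there is no net growth.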

Legend:
Test in all cases: NCI-60 cell line screen, 48 h
A498 renal = test system: A498 renal
HCC-2998 colon = test system: HCC-2998 colon
HCT-116 colon = test system: HCT-116 colon
M14 melanoma = test system: M14 melanoma
MOLT-4 leukemia = test system: MOLT-4 leukemia
RXF 393 renal = test system: RXF 393 renal
SN12C renal = test system: SN12C renal
SW-620 colon = test system: SW-620 colon
LOX IMVI melanoma = test system: LOX IMVI melanoma
MDA-MB-435 = test system: MDA-MB-435

SMILES	GI50 (A498 renal) [µM]	TGI (A498 renal) [µM]	GI50 (HCC-2998 colon) [µM]	TGI (HCC-2998 colon) [µM]	GI50 (HCT-116 colon) [µM]	TGI (HCT-116 colon) [µM]	GI50 (M14 melanoma) [µM]	TGI (M14 melanoma) [µM]	GI50 (MOLT-4 leukemia) [µM]	TGI (MOLT-4 leukemia) [µM]	GI50 (RXF 393 renal) [µM]	TGI (RXF 393 renal) [µM]	GI50 (SN12C renal) [µM]	TGI (SN12C renal) [µM]	GI50 (SW-620 colon) [µM]	TGI (LOX IMVI melanoma) [µM]	TGI (SW-620 colon) [µM]	TGI (MDA-MB-435) [µM]	GI50 (LOX IMVI melanoma) [µM]	GI50 (MDA-MB-435) [µM]
CC(=O)[O][Hg][c]1s[c]([Hg][O]C(C)=O)[c]([Hg][O]C(C)=O)[c]1[Hg][O]C(C)=O	20.1	35.1	14.6	40.1	7.12	> 100	1.98	14	2.26	17.5	13.1	28.6	8.33	> 100	6.51					
Cc1ccc(C)c(NC(=O)C(=O)Nn2c(=S)[nH]c3ccccc3c2=O)c1		> 100		> 100		> 100		> 100		> 100		> 100		> 100		> 100	> 100			
O/N=C1\C(=C\c2ccc3c(c2)OCCO3)CCCC1C(NO)c1ccc2c(c1)OCCO2 (stereo not given)		60		65.3		40.4		34.4		32.4		59.3		29.8		29.1	> 100			
CC1OC(=O)N2CCC=CC12 (stereo not given)		> 100				> 100				> 100		> 100		> 100		> 100	> 100			
Nc1ccn(C2CC3OCC3O2)c(=O)n1 (stereo not given)		> 100				> 100		> 100		> 100				> 100		> 100	> 100	> 100		
COc1cc([C@@H]2c3cc4c(cc3[C@@H](NCc3cccc(F)c3)C3COC(=O)[C@@H]32)OCO4)cc(OC)c1O (stereo not given in full)		13.1		20.9		20.1		40.3		5.59		45.3		12.8		16.3	22.5			
Cc1nc(-n2nc(-c3ccccc3)cc2-c2ccccc2)sc1C(=O)/C=C/c1cccc([N+](=O)[O-])c1		51.9		28.8						22.4		29.8		73.4		36.6				
Cc1c(C2CCSc3ccccc3N2)sc2ccccc12 (stereo not given)				> 100		> 100		> 100		> 100		> 100		> 100		> 100	> 100	> 100		
CCOc1ccccc1NC(=O)C1=C(C)NC(C)=C(C(=O)Nc2ccccc2OCC)C1c1cccc([N+](=O)[O-])c1		> 100		> 100				> 100		> 100		> 100		> 100		> 100	> 100			
O=[N+]([O-])c1ccc2nc(-c3ccc(Cl)cc3)[nH]c2c1						32		34.5		> 100				> 100		35.3	> 100	46.8		
O=C(N/C(=C\c1ccc(F)cc1)c1nc2ccccc2[nH]1)c1ccccc1		> 100				> 100		> 100		> 100		> 100		> 100		> 100	> 100			
Cc1ccc([N+]2=NC(c3ccccc3)=NN(c3ccccc3)C2)cc1		> 100		> 100		> 100				> 100		> 100		> 100		> 100	> 100			
CN1C/C(=C\c2ccc(C(=O)O)cc2)C(=O)/C(=C/c2ccc(C(=O)O)cc2)C1		> 100		> 100		> 100		> 100		> 100		> 100		> 100		> 100	> 100			
COC(=O)C(C)Oc1ccc(O)cc1 (stereo not given)		> 100		> 100		40.3		> 100						> 100			> 100			
CCN(CC)CCNc1ccc([N+](=O)[O-])c2nc3ccc(OC)cc3c(N)c12		3.08				0.284		2.97		1.61		2.58		2.83		0.344	0.772	2.98		
Cc1nc2sc(C(=O)Nc3ccccc3)c(N)c2cc1C(=O)c1ccccc1	0.216	3.72	2.19	25.8	1.59	> 50	1.56	> 50	2	> 50	1.83	34.3	3.01	> 50	2.29	> 50	> 50		3	
N/C(CC(=O)NOC(=O)c1ccccc1)=N/OC(=O)c1ccccc1		> 100				> 100		> 100		75.9		60.6		> 100		38.5	> 100	> 100		
COC(=O)[C@@H](C)C[C@H](Cc1ccccc1)NC(=O)c1csc([C@@H](C[C@H](C(C)C)N(C)C(=O)[C@@H](NC(=O)[C@H]2CCCCN2C)C(C(F)(F)F)C(F)(F)F)OC(C)=O)n1	0.0829	> 16.7	0.0747	> 16.7	0.057	> 16.7	0.0333	0.115	0.0631	> 16.7			0.106	> 16.7	0.0673	> 16.7	> 16.7	0.0219	0.053	0.00437
COC(=O)C(/C(=N\O)C(=O)Nc1ccc(Br)cc1)c1nc2ccccc2[nH]c1=O (stereo not given)		> 100		> 100		> 100		> 100		57.5		89.2		> 100		41.6				
CC(CC(=O)Nc1ccc(NC(=O)CC(C)N=NC(N)=O)cc1)N=NC(N)=O (stereo not given)		> 100		> 100		> 100		> 100		> 100		> 100		> 100		79.8				
C#C[C@@H](CCCC)OC(=O)N[C@H](C)c1ccccc1						> 100		> 100		> 100				> 100		> 100	> 100			
Cc1c(Cl)cccc1NC(=O)C(=O)c1c(O)c2ccc(O)cc2oc1=O		> 100		> 100		> 100		> 100		> 100		> 100		> 100		> 100	> 100			

SMILES	GI50 (A498 renal) [µM]	TGI (A498 renal) [µM]	GI50 (HCC-2998 colon) [µM]	TGI (HCC-2998 colon) [µM]	GI50 (HCT-116 colon) [µM]	TGI (HCT-116 colon) [µM]	GI50 (M14 melanoma) [µM]	TGI (M14 melanoma) [µM]	GI50 (MOLT-4 leukemia) [µM]	TGI (MOLT-4 leukemia) [µM]	GI50 (RXF 393 renal) [µM]	TGI (RXF 393 renal) [µM]	GI50 (SN12C renal) [µM]	TGI (SN12C renal) [µM]	GI50 (SW-620 colon) [µM]	TGI (LOX IMVI melanoma) [µM]	TGI (SW-620 colon) [µM]	TGI (MDA-MB-435) [µM]	GI50 (LOX IMVI melanoma) [µM]	GI50 (MDA-MB-435) [µM]
COC1CC(n2cc(F)c(N)nc2=O)OC1CO (stereo not given)				> 100				> 100		> 100		> 100		> 100		> 100	> 100			
N#C/C(=C1\OC(N)=C(c2ccc(Cl)cc2)C1=O)c1ccc(Cl)cc1		31.1		30.9		32.4		29.8		50.9		25.4		23		31.4	25.9			
CC(=O)/C(=C/N1CCN(C(=O)c2ccco2)C1=S)C(=O)c1ccccc1					6.39	16.6	6.32	13.1	15.9	> 50			7.65	15.2	6.12	20.4	17	43.9	8.91	10.7
CC1=C2C3OC(=O)C(C)C3C(O)C[C@@]2(C)C(=O)CC1 (stereo not given in full)		> 100		> 100		> 100		> 100		> 100		> 100		> 100		> 100	> 100			
C/C(=N\Nc1n[nH]c(=S)n1N)c1c(O)cc(C)oc1=O		> 100		> 100		> 100		> 100		> 100				> 100		> 100	> 100			
O=C1C(=Cc2ccc(F)cc2)C(=O)c2ccccc21		> 100		> 100		> 100		> 100		> 100							> 100			
NC(=O)c1nc(-c2ccc(Cl)c(Cl)c2)nc2ccccc12		> 100				> 100		> 100		> 100		> 22.2		> 100		> 100	> 100			
CCOC(=O)CN1C(=O)C(=O)N(c2ccc(OC)c3ccccc23)C1=O				> 100		> 100		> 100		> 100		> 100		> 100		> 100	> 100	> 100		
CSc1nc2ccc(C)cc2cc1/C=C1/C=C(c2ccccc2)NC1=O			> 100	> 100	0.731	4.07	5.42	78	15.5	> 100	3.06		4.53	32.3	2.62	33.2	92.1	21	6.33	0.718
COc1cc(CCc2ccncc2)cc(OC)c1OC		> 100				> 100		> 100		> 100		> 100		> 100		> 100	> 100			
O=C(CCc1cc(-c2ccc(F)cc2)n[nH]1)N(Cc1ccccc1)Cc1ccccc1		> 100		> 100		> 100		> 100		> 100		> 100		> 100		> 100	> 100			
C=CCO[C@H]1CC[C@@]2(C)C(CC[C@]3(C)C2CC=C2[C@@H]4[C@@H](C)C(C)CC[C@]4(C(=O)O)CCC23C)C1(C)C (stereo not given in full)		32.4		32.4		25.5		34.6				22.8		27.1		27.2	35.4			
C=CCCC(=O)CC(=O)OCc1ccccc1		> 100		> 100		> 100		> 100		> 100				> 100		> 100	> 100			
Oc1ccc(O)c(-n2cccn2)c1-n1cccn1		> 100		> 100				> 100		> 10		> 100		> 100		> 100	> 100			
CN1CCN(c2nc3cc(F)ccc3n3cccc23)CC1				> 100		> 100		34.5		81.8		> 100		> 100		31.4	> 100	64.6		
COC(=N)CCCl				> 100		> 100		> 100		> 100		> 100		> 100			> 100			
CCCCCC/C(CC(=O)CCC(=O)NCCc1ccccc1)=N\Nc1ccc([N+](=O)[O-])cc1[N+](=O)[O-]		> 100		> 100		> 100		> 100		60.3		> 100		> 100		> 100	> 100			
N#CC(C#N)C(c1ccccc1)c1ccccc1		> 100		> 100		> 100		> 100		> 100		> 100		> 100		> 100	> 100			
Cc1nc(-n2nc(-c3ccccc3)cc2-c2ccccc2)sc1C(=O)CC(=O)C(=O)Nc1ccc(O)cc1		> 100		> 100		> 100		> 100		> 100		> 100		> 100		> 100	> 100			
CN(C)C(=S)/N=c1\ss/c(=N\S(=O)(=O)c2ccccc2)n1C		> 100		> 100		> 100		> 100		> 100		> 100		> 100		> 100	> 100			
CCN1CCC(O)(/C=C/c2ccccc2)C(C(=O)/C=C/c2ccccc2)C1 (stereo not given)		18.4		4.01		3.08		4.13		5.38		3.24		3.7			3.41			
COC(=O)C#CC(N)=O		> 100		> 100		> 100		42.2		62.6		> 100		> 100		> 50.4	> 54.8			
